Experiments:
STS ® soybeans = experiment: Postemergence herbicide treatment of soybeans in greenhouse, visual injury; assay type: in vivo, soybean
Description: When possible, containers were thinned to two uniform plants.

[1] = test system: parent elite stiff stalk inbred corn; experiment: Postemergence herbicide application in greenhouse: fresh shoot weight and visual injury; assay type: in vivo; details: postemergence, 200 g/ha (glyphosate 3472 g ae/ha, glufosinate ammonium 1870 g/ha), mean of four replications
[2] = test system: Untransformed Coker 312 cotton; experiment: Greenhouse over the top herbicide spray of cotton; assay type: in vivo, Gossypium hirsutum; details: glyphosate 1.5 lb ae/acre, 2 weeks after application; rimsulfuron 16 g active ingredient/hectare without glyphosate
Description: Transformed cotton plants were rooted and then transferred to soil for further growth. Plants were then subjected to herbicide spray treatments in a greenhouse. […] Untransformed Coker 312 control plants were dead 2 weeks after glyphosate application. […] Plants transformed with both GAT and HRA were further subjected to an “over the top” application of the sulfonylurea herbicide rimsulfuron at a rate of 16 g active ingredient/hectare. […] In further experiments 32 g ai/ha rimsulfuron were applied to the cotton.

[3] = test system: Heterozygous GAT-HRA corn; experiment: Preemergence herbicide application in greenhouse: fresh shoot weight and visual injury; assay type: in vivo; details: preemergence, 200 g/ha, mean of four replications
[4] = test system: parent elite stiff stalk inbred corn; experiment: as above; assay type: in vivo; details: preemergence, 200 g/ha, mean of four replications
[5] = test system: Heterozygous GAT-HRA corn; experiment: Postemergence herbicide application in greenhouse: fresh shoot weight and visual injury; assay type: in vivo; details: postemergence, 200 g/ha (glyphosate 3472 g ae/ha, glufosinate ammonium 1870 g/ha), mean of four replications
GAT-HRA soybeans = experiment: Postemergence herbicide treatment of soybeans in greenhouse, visual injury; assay type: in vivo, soybean; details: postemergence, glyphosate 8960, tribenuron-methyl 35, rimsulfuron 35 g/ha
Description: (§1) Young regenerated transgenic plants were sprayed with 1× glyphosate (1× rate of glyphosate is 1120 g/ha of glyphosate isopropylamine) to cull segregants. Four replications were performed for each treatment. Plants were then treated with various herbicides, including glyphosate and ALS-inhibitor herbicides.
(§2) Six soybean seeds from each variety to be assayed were planted 1 cm deep in 5.5 (13.97 cm) inch square plastic container of a synthetic growth medium. […] When possible, containers were thinned to two uniform plants. Non-transgenic lines were thinned to two uniform plants per container.
(§3) Results are expressed below in Table 11 as the mean of four replications.

[6] = test system: Wild Type soybeans (Jack); experiment: as above; assay type: in vivo, soybean; details: postemergence, glyphosate 8960, tribenuron-methyl 35, rimsulfuron 35 g/ha
Description: as §1, §2, §3

[7] = Zea mays, post-emergence, 0% no injury, 100% plant death, read-out: % Visual Injury
[8] = Zea mays, pre-emergence, 672 h, 0% no injury, 100% plant death, read-out: % Visual Injury

## CCS(=O)(=O)c1cccnc1S(=O)(=O)NC(=O)Nc1nc(OC)cc(OC)n1 [Rimsulfuron]
STS ® soybeans; STS ® line 25, glyphosate 8960, tribenuron-methyl 35, rimsulfuron 35 g/ha
  % Visual Injury: 97%
STS ® soybeans; STS ® line 46, glyphosate 8960, tribenuron-methyl 35, rimsulfuron 35 g/ha
  % Visual Injury: 97%
STS ® soybeans; STS ®, mean, glyphosate 8960, tribenuron-methyl 35, rimsulfuron 35 g/ha
  % Visual Injury: 97%
[1]; [7]
  pest or weed control at 200 g/ha: 91%
[1]; weighed 2 weeks after treatment, untreated 76.4 g
  Fresh Weight: 12.6 g
[2]
  damage to untransformed control plants: severe damage
[3]; [8]
  pest or weed control at 200 g/ha: 0%
[3]; fresh shoots weighed 4 weeks after treatment, untreated 47.0 g
  Fresh Weight: 45.3 g
[4]; [8]
  pest or weed control at 200 g/ha: 74%
[4]; fresh shoots weighed 4 weeks after treatment, untreated 36.7 g
  Fresh Weight: 29.8 g
[5]; [7]
  pest or weed control at 200 g/ha: 10%
[5]; weighed 2 weeks after treatment, untreated 98.8 g
  Fresh Weight: 99.2 g
GAT-HRA soybeans; event 59, mean
  % Visual Injury: 87%
GAT-HRA soybeans; event 59 line 21
  % Visual Injury: 88%
GAT-HRA soybeans; event 59 line 28
  % Visual Injury: 86%
GAT-HRA soybeans; event 60, mean
  % Visual Injury: 83%
GAT-HRA soybeans; event 60 line 07
  % Visual Injury: 84%
GAT-HRA soybeans; event 60 line 11
  % Visual Injury: 83%
GAT-HRA soybeans; event 60 line 22
  % Visual Injury: 76%
GAT-HRA soybeans; event 60 line 35
  % Visual Injury: 85%
GAT-HRA soybeans; event 60 line 41
  % Visual Injury: 80%
GAT-HRA soybeans; event 60 line 46
  % Visual Injury: 78%
GAT-HRA soybeans; event 60 line 70
  % Visual Injury: 80%
GAT-HRA soybeans; event 60 line 75
  % Visual Injury: 86%
GAT-HRA soybeans; event 60 line 77
  % Visual Injury: 90%
GAT-HRA soybeans; event 60 line 79
  % Visual Injury: 86%
GAT-HRA soybeans; event 60 line 82
  % Visual Injury: 90%
GAT-HRA soybeans; event 60 line 84
  % Visual Injury: 83%
GAT-HRA soybeans; event 61, mean
  % Visual Injury: 82%
GAT-HRA soybeans; event 61 line 02
  % Visual Injury: 80%
GAT-HRA soybeans; event 61 line 02B
  % Visual Injury: 70%
GAT-HRA soybeans; event 61 line 05
  % Visual Injury: 78%
GAT-HRA soybeans; event 61 line 14
  % Visual Injury: 90%
GAT-HRA soybeans; event 61 line 18
  % Visual Injury: 89%
GAT-HRA soybeans; event 61 line 24
  % Visual Injury: 90%
GAT-HRA soybeans; event 61 line 33
  % Visual Injury: 95%
GAT-HRA soybeans; event 61 line 34
  % Visual Injury: 90%
GAT-HRA soybeans; event 61 line 47
  % Visual Injury: 78%
GAT-HRA soybeans; event 61 line 49
  % Visual Injury: 84%
GAT-HRA soybeans; event 61 line 51
  % Visual Injury: 83%
GAT-HRA soybeans; event 61 line 60
  % Visual Injury: 73%
GAT-HRA soybeans; event 61 line 62
  % Visual Injury: 71%
GAT-HRA soybeans; event 61 line 99
  % Visual Injury: 79%
GAT-HRA soybeans; event 64, mean
  % Visual Injury: 73%
GAT-HRA soybeans; event 64 line 41
  % Visual Injury: 73%
GAT-HRA soybeans; event 64 line 47
  % Visual Injury: 73%
[6]; Wild Type line 82
  % Visual Injury: 97%
[6]; Wild Type line Jack
  % Visual Injury: 97%
[6]; Wild Type, mean
  % Visual Injury: 97%
